Consider two molecules from patent US20120122848A1, “(+)-3-HYDROXYMORPHINAN DERIVATIVES AS NEUROPROTECTANTS” (GREEN CROSS CORPORATION, priority 2009, published 2012).

The test system of series [1] is dopamine (DA) neurons in substantia nigra pars compacta. The settings on record: MPTP model, daily injections; cited from earlier work.
Series [2] in a line: Cell cytotoxicity test: protection of HT22 cells against glutamate toxicity (EC50) and cytotoxicity of the compounds (CC50), MTT. Type of series: cell-based, mouse. To be noted: mouse, HT22 cells (mouse hippocampal neuron). In outline: (§1)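 Cells plated 16 hrs, then exposed to 5 mM glutamate plus a compound concentration series for 24 hrs in DMEM with 10% FBS. Viability by MTT (4 hrs), absorbance at 450 nm; EC50 is protection against glutamate toxicity, CC50 is compound cytotoxicity.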

The test system of series [3] is HT22 cells (mouse hippocampal neuron). The series is described as above. To be noted: Mus musculus, HT-22, five millimolar glutamate, 24 hrs, read-out: EC50 (neuroprotective effect against glutamate toxicity). The class given is cell-based. In outline: as §1
Series [4] has as its system HT22 cells. The series can be described thus: ROS measurement using DCFDA in glutamate-treated HT22 cells. The class given is cell-based. To be noted: Mus musculus, HT-22, 5 mM glutamate, 8 hrs. On the procedure: HT22 cells (1×10^4) plated in a 96-well plate were treated with 5 mM glutamate in the absence or presence of 3-HM.HBr or the compound of Example 26, and incubated for 8 hrs. After washing with PBS, cells were stained with 10 μM 2,7-dichlorodihydrofluorescein diacetate (DCFDA) in HBSS (Hank's balanced salt solution, Gibco) for 30 min in the dark. Then the cells were washed with PBS twice and extracted with 1% Triton X-100 in PBS for 10 min at 37° C. Fluorescence was recorded with the excitation wavelength of 490 nm and the emission wavelength of 525 nm (Infinite M200, TECAN) [Da-Qing, et. al., Anti-oxidant and anti-inflammatory activities of macelignan in murine hippocampal cell line and primary culture of rat microglia cells, BBRC, 2005, 331, 1264-1269]. The EC50 values were analyzed statistically using Prizm® (GraphPad Software Inc., San Diego, Calif., USA).

Series [5] concerns SirT1. In words: RT-PCR analysis of target gene expression under glutamate toxicity in HT22 cells. The settings on record: 10 mM glutamate, 18 hrs. Type of series: cell-based, mouse. The procedure: HT22 cells (1.5×10^7) plated in a 100 mm dish were treated with 10 mM glutamate in the absence or presence of 3-HM.HBr or the compound of Example 26 and incubated for 18 hrs. Oligonucleotide primers used for the PCR amplification were DJ-1 (PARK7), LRRK2 (Leucine-rich repeat kinase 2), PINK1 (PTEN induced putative kinase 1), SirT1 (silent mating type information regulation 2 homolog 1 (S. cerevisiae)), SirT2 (silent mating type information regulation 2 homolog 2 (S. cerevisiae)), and others. PCR products were electrophoresed on 2% agarose gels and detected by ethidium bromide [Kumiko I. et al., The Activation of Dopamine D4 Receptors Inhibits Oxidative Stress-Induced Nerve Cell Death., J. Neurosci., 2001].
FIG. 2A and FIG. 2B show the results of reverse transcription polymerase chain reaction.
In FIG. 2A, Lane 1 is mock, Lane 2 is the group treated with 10 mM Glutamate, and Lane 3 is the group treated with 10 mM Glutamate and 100 uM 3-HM.HBr. […]

The test system of series [6] is SirT1. The series can be described thus: Western blotting analysis of SirT1 in glutamate-treated HT22 cells. The settings on record: 10 mM glutamate, 18 hrs. The class given is cell-based, mouse. On the procedure:
HT22 cells (1.5×10^7) plated in a 100 mm dish were treated with 10 mM glutamate in the absence or presence of 3-HM.HBr or the compound of Example 26, and incubated for 18 hrs. The cells were collected by scraping in a sample buffer (3% SDS, 1% glycerol, 0.5% 2-mercaptoethanol, 0.05% bromophenol blue, and 80 mM Tris-HCl buffer, pH 6.8, with complete protease inhibitors). The resulting suspention was centrifuged and the pellets thus obtained were re-suspended in the sample buffer. The samples were heated for 3 min in boiling water, fractionated on 4-20% polyacrylamide gels, and electroblotted onto membranes. SirT1 affinity purified polyclonal antibody was used as the primary antibody. Immunoreactive bands were detected with the ECL (Amersham Pharmacia Biotech, Arlington Heights, Ill.) Western blotting detection reagents [Kumiko, I. et al., The Activation of Dopamine D4 Receptors Inhibits Oxidative Stress-Induced Nerve Cell Death., J. Neurosci., 2001, 21(16):6069-6076]. […]
A general note: A western blot detects proteins with antibodies after separation by electrophoresis.

Series [7] in a line: Total antioxidant activity assay (TEAC; metmyoglobin, 2,2′-azinobis(3-ethylbenzoline 6-sulfonate), H2O2). The settings on record: 7.5 min at 30° C., absorbance at 734 nm. On the procedure:
Briefly, 1 ml of reaction mixture including 2.5 μM metmyoglobin, 150 μM 2,2′-azinobis(3-ethylbenzoline 6-sulfonate), 75 μM H2O2, and 0.84% sample or Trolox (for standard) in PBS was incubated for 7.5 min at 30° C.; then the absorbance at 734 nm was measured. The data are normalized to 1 mM Trolox (TEAC activity) [Kumiko I. et al., The Activation of Dopamine D4 Receptors Inhibits Oxidative Stress-Induced Nerve Cell Death., J. Neurosci., 2001]. The EC50 values were analyzed statistically using Prizm® (GraphPad Software Inc., San Diego, Calif., USA).

Structures are written as SMILES. pEC50: −log10 of the molar value. Structures can show the parent of a compound that is named as a salt.

With `Oc1ccc2c(c1)[C@]13CCCC[C@@H]1[C@H](C2)NCC3` [(+)-3-HM, (+)-3-Hydroxymorphinan], in series [1], the “DA levels in striatum” value is reported as “DA levels in striatum has been restored” and the “protection of DA neurons in substantia nigra pars compacta” value is recorded as “dopamine (DA) neurons in substantia nigra pars compacta have been protected”.
`Oc1ccc(Nc2cc3c(cc2O)[C@]24CCCC[C@@H]2[C@H](C3)NCC4)cc1` [Example 26, (+)-3-Hydroxy-2-(4-hydroxyphenylamino)morphinan TFA salt]: half-maximal cytotoxicity in series [2] (CC50 at 24 h) was put at 2310 nM. The pEC50 in series [3] is 8.34; in series [4], 5.51; in series [7], 4.49. For the same molecule, the “SirT1 expression levels (RT-PCR)” value in series [5] is reported as “decreased SirT1 expression levels were elevated”. In series [6], the “SirT1 expression (Western blotting)” value is “this decreasing was protected”.

Broadly, the CC50 is the concentration that lowers cell viability or growth by half. A lower CC50 goes with harm at low concentration. By pEC50 is commonly meant −log10 of the EC50, conventionally taken in molar units.
